Measurements reported in PubChem BioAssay AID2060882 (Molecular Pharmacology Branch, DTP, NCI, 2025).

System: 898857-211-R-J1-PDC complex spheroids, growth % test/control
Experiment: Anticancer human tumor 898857-211-R-J1-PDC patient-derived melanoma cell line growth inhibition [RAS]
Details: for viability, T/C: stronger effect = lower value
How it was run: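 Tumour cells grown as complex spheroids with HUVEC endothelial cells and mesenchymal stem cells, treated with RAS pathway inhibitor combinations. Each agent spans half-log steps from near clinical Cmax, or 10 microM where Cmax is unknown.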

[1] = curve of first compound, second compound 0.000949 µM
[2] = curve of first compound, second compound 0.003 µM
[3] = curve of first compound, second compound 0.00949 µM
[4] = curve of first compound, second compound 0.03 µM
[5] = curve of first compound, second compound 0.0949 µM
[6] = curve of first compound, second compound 0.3 µM
[7] = second compound 0.000949 µM, first compound 0.0316 µM
[8] = second compound 0.000949 µM, first compound 0.1 µM
[9] = second compound 0.000949 µM, first compound 0.316 µM
[10] = second compound 0.000949 µM, first compound 1 µM
[11] = second compound 0.000949 µM, first compound 3.16 µM
[12] = second compound 0.000949 µM, first compound 10 µM
[13] = second compound 0.003 µM, first compound 0.0316 µM
[14] = second compound 0.003 µM, first compound 0.1 µM
[15] = second compound 0.003 µM, first compound 0.316 µM
[16] = second compound 0.003 µM, first compound 1 µM
[17] = second compound 0.003 µM, first compound 3.16 µM
[18] = second compound 0.003 µM, first compound 10 µM
[19] = second compound 0.00949 µM, first compound 0.0316 µM
[20] = second compound 0.00949 µM, first compound 0.1 µM
[21] = second compound 0.00949 µM, first compound 0.316 µM
[22] = second compound 0.00949 µM, first compound 1 µM
[23] = second compound 0.00949 µM, first compound 3.16 µM
[24] = second compound 0.00949 µM, first compound 10 µM
[25] = second compound 0.03 µM, first compound 0.0316 µM
[26] = second compound 0.03 µM, first compound 0.1 µM
[27] = second compound 0.03 µM, first compound 0.316 µM
[28] = second compound 0.03 µM, first compound 1 µM
[29] = second compound 0.03 µM, first compound 3.16 µM
[30] = second compound 0.03 µM, first compound 10 µM
[31] = second compound 0.0949 µM, first compound 0.0316 µM
[32] = second compound 0.0949 µM, first compound 0.1 µM
[33] = second compound 0.0949 µM, first compound 0.316 µM
[34] = second compound 0.0949 µM, first compound 1 µM
[35] = second compound 0.0949 µM, first compound 3.16 µM
[36] = second compound 0.0949 µM, first compound 10 µM
[37] = second compound 0.3 µM, first compound 0.0316 µM
[38] = second compound 0.3 µM, first compound 0.1 µM
[39] = second compound 0.3 µM, first compound 0.316 µM
[40] = second compound 0.3 µM, first compound 1 µM
[41] = second compound 0.3 µM, first compound 3.16 µM
[42] = second compound 0.3 µM, first compound 10 µM
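Further: spheroids exposed to compound for seven days before readout.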
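Wherever viability, T/C is given: 100% = DMSO vehicle control wells.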

## CC(=O)OC12COC1CC(O)C1(C)C(=O)C(O)C3=C(C)C(OC(=O)C(O)C(NC(=O)OC(C)(C)C)c4ccccc4)CC(O)(C(OC(=O)c4ccccc4)C21)C3(C)C (stereo unspecified) + CCn1c(-c2cccnc2C(C)OC)c2c3cc(ccc31)N1CCOC(CC(NC(=O)C(C(C)C)N(C)C(=O)C3(F)CCN(C(=O)C#CC(C)(C)N(C)C)CC3)C(=O)N3CCCC(N3)C(=O)OCC(C)(C)C2)C1
[1]
  IC50: < 31.6 nM
[2]
  IC50: < 31.6 nM
[3]
  IC50: < 31.6 nM
[4]
  IC50: < 31.6 nM
[5]
  IC50: < 31.6 nM
[6]
  IC50: < 31.6 nM
[7]
  viability, T/C: 10.8%
[8]
  viability, T/C: 9.24%
[9]
  viability, T/C: 8.35%
[10]
  viability, T/C: 12.8%
[11]
  viability, T/C: 18.6%
[12]
  viability, T/C: 20.4%
[13]
  viability, T/C: 10.1%
[14]
  viability, T/C: 11.5%
[15]
  viability, T/C: 11.4%
[16]
  viability, T/C: 12.4%
[17]
  viability, T/C: 14%
[18]
  viability, T/C: 20.9%
[19]
  viability, T/C: 7.95%
[20]
  viability, T/C: 8.82%
[21]
  viability, T/C: 13.5%
[22]
  viability, T/C: 11.8%
[23]
  viability, T/C: 12.9%
[24]
  viability, T/C: 20.2%
[25]
  viability, T/C: 8.31%
[26]
  viability, T/C: 10.6%
[27]
  viability, T/C: 9.59%
[28]
  viability, T/C: 13.5%
[29]
  viability, T/C: 16.6%
[30]
  viability, T/C: 15.3%
[31]
  viability, T/C: 8.5%
[32]
  viability, T/C: 10.2%
[33]
  viability, T/C: 10.7%
[34]
  viability, T/C: 11.4%
[35]
  viability, T/C: 15.7%
[36]
  viability, T/C: 14.4%
[37]
  viability, T/C: 8.04%
[38]
  viability, T/C: 7.55%
[39]
  viability, T/C: 8.89%
[40]
  viability, T/C: 9.35%
[41]
  viability, T/C: 11.3%
[42]
  viability, T/C: 7.88%

## C[C@@H](NC(=O)c1ncnc(N)c1Cl)c1ncc(C(=O)Nc2cc(C(F)(F)F)c(Cl)cn2)s1 + CCn1c(-c2cccnc2C(C)OC)c2c3cc(ccc31)N1CCOC(CC(NC(=O)C(C(C)C)N(C)C(=O)C3(F)CCN(C(=O)C#CC(C)(C)N(C)C)CC3)C(=O)N3CCCC(N3)C(=O)OCC(C)(C)C2)C1
[1]
  IC50: 3860 nM
[2]
  IC50: 2550 nM
[3]
  IC50: 3120 nM
[4]
  IC50: 3880 nM
[5]
  IC50: 3030 nM
[6]
  IC50: 1970 nM
[7]
  viability, T/C: 121%
[8]
  viability, T/C: 114%
[9]
  viability, T/C: 112%
[10]
  viability, T/C: 83.5%
[11]
  viability, T/C: 56.2%
[12]
  viability, T/C: 27.5%
[13]
  viability, T/C: 128%
[14]
  viability, T/C: 105%
[15]
  viability, T/C: 103%
[16]
  viability, T/C: 66.4%
[17]
  viability, T/C: 45.6%
[18]
  viability, T/C: 28.8%
[19]
  viability, T/C: 114%
[20]
  viability, T/C: 120%
[21]
  viability, T/C: 111%
[22]
  viability, T/C: 81.3%
[23]
  viability, T/C: 52.1%
[24]
  viability, T/C: 27.9%
[25]
  viability, T/C: 123%
[26]
  viability, T/C: 116%
[27]
  viability, T/C: 97.4%
[28]
  viability, T/C: 83.7%
[29]
  viability, T/C: 53.6%
[30]
  viability, T/C: 26.6%
[31]
  viability, T/C: 105%
[32]
  viability, T/C: 100%
[33]
  viability, T/C: 87.2%
[34]
  viability, T/C: 66.7%
[35]
  viability, T/C: 51.7%
[36]
  viability, T/C: 24.9%
[37]
  viability, T/C: 82.9%
[38]
  viability, T/C: 87.9%
[39]
  viability, T/C: 73.2%
[40]
  viability, T/C: 62.5%
[41]
  viability, T/C: 41.8%
[42]
  viability, T/C: 21.3%

## CC(Nc1ccc2c(c1)OCCn1cc(N3C(=O)OCC3C(F)F)nc1-2)C(N)=O (stereo unspecified)
Compound 0.0316 µM
  viability, T/C: 101% [middle of 4 runs]
Compound 0.1 µM
  viability, T/C: 90.6% [middle of 4 runs]
Compound 0.316 µM
  viability, T/C: 102% [middle of 4 runs]
Compound 1 µM
  viability, T/C: 91.9% [middle of 4 runs]
Compound 3.16 µM
  viability, T/C: 95.3% [middle of 4 runs]
Compound 10 µM
  viability, T/C: 70.9% [middle of 4 runs]
Curve of compound
  IC50: > 10000 nM
